Values of other authors in US5470884A, “Anti-acne compositions” (Procter & Gamble, priority 1994, dated 1995).

Test system: skin
Settings: excessive drying, scaling, swelling, burning, peeling, redness, allergic contact dermatitis, sensitization

## O=C(OOC(=O)c1ccccc1)c1ccccc1 [benzoyl peroxide]
  skin irritation: very irritating to the skin
